Data set [1] has as its system Ca^2+ signals (calcium ion response). Nature of the data set: Live GFP fluorescence imaging of Ca^2+ signals in GCaMP-expressing plants after gas exposure. In kind it is in vivo, Arabidopsis thaliana. The conditions noted are these: about 200 ppm or lower, 10 seconds. An excerpt: An experiment was implemented, in which a plant was exposed to dinitrogen pentoxide to confirm induction of Ca^2+ signals (calcium ion response) as information of injuries similar to insect damages or physical injuries, using the plant disease resistance inducing device 10 illustrated in FIG. 1.
First, Ca^2+ signals that had appeared by exposing the whole body of Arabidopsis thaliana to dinitrogen pentoxide were observed. In the experiment, the concentration of dinitrogen pentoxide in the gas for the exposure was set to about 200 ppm or lower, and the exposure time was set to 10 seconds. For comparison, Ca^2+ signals that had appeared by exposing the whole body of Arabidopsis thaliana to dry air were also observed under the same condition. FIG. 2 presents states of Arabidopsis thaliana before the exposure, and states of the Ca^2+ signals 60 seconds after the termination of the exposure.
Next, Ca^2+ signals that had appeared by exposing one leaf of Arabidopsis thaliana to dinitrogen pentoxide were observed. In the experiment, only one leaf of Arabidopsis thaliana (leaf surrounded by dotted line in FIG. 3(a)) was exposed to dinitrogen pentoxide. The concentration of dinitrogen pentoxide in the gas for the exposure was set to about 200 ppm or lower, and the exposure time was set to 10 seconds.

The subject of data set [2] is PDF1.2, ORA59, PAD3, CYP71A12, NIT2, and WRKY26. Put plainly: RNA sequencing (RNA-seq) gene expression analysis after gas exposure. The format is in vivo, Arabidopsis thaliana. The method, then: A plant was exposed to dinitrogen pentoxide using the plant disease resistance inducing device 10 illustrated in FIG. 1, and a gene expression was analyzed by RNA sequencing (RNA-seq) and quantitative real-time PCR (qRT-PCR). In the RNA-seq analysis, Arabidopsis thaliana at 5 week of seeding was exposed to dinitrogen pentoxide once a day for 3 days. In each exposure, Arabidopsis thaliana was exposed to dinitrogen pentoxide from a distance of 5 cm for 20 seconds. A concentration of dinitrogen pentoxide in the gas for the exposure was set to about 200 ppm or lower. Twenty-four hours after the last exposure, leaves that had fully developed were collected, from which the total RNA was extracted, followed by RNA-seq analysis. For comparison, as a control plot, a leaf exposed to dry air under the same condition was also subjected to the RNA-seq analysis.
Genes with expression levels not less than twice as high as that of the control plot, induced by the dinitrogen pentoxide exposure, and genes with reduced expression levels not more than half as high as that of the control plot were extracted. As a result, 1304 genes with twice or more of induced expression levels, and 1209 genes with expression levels reduced to half or less were found.
Based on the result of the RNA-seq, six genes: PDF1.2, ORA59, PAD3, CYP71A12, NIT2, and WRKY26, were selected as candidate marker genes for the dinitrogen pentoxide exposure. Herein, PDF1.2 is an antimicrobial peptide gene and is often used as a marker gene for jasmonic acid and ethylene. ORA59 is a gene related to regulation of PDF1.2 expression. PAD3 is a gene related to biosynthesis of an antimicrobial substance camalexin, which is synthesized and induced by jasmonic acid. CYP71A12 is a gene related to a tryptophan metabolism at an upstream of PAD3. NIT2 is a gene related to biosynthesis of auxin that is another plant hormone derived from tryptophan. WRKY26 is a gene which, as is known, functionally overlaps with a transcription factor WRKY33 that regulates jasmonic acid signals.

The test system is the same in data set [3]. Put plainly: qRT-PCR time course of marker gene expression relative to ACT2 gene. To be noted: single 20 seconds exposure from 5 cm. In kind it is in vivo, Arabidopsis thaliana. The protocol:
Subsequently, the expression of each of the selected genes was analyzed by qRT-PCR. In the qRT-PCR, Arabidopsis thaliana at 5 week of seeding was exposed to dinitrogen pentoxide from a distance of 5 cm for 20 seconds. The dinitrogen pentoxide exposure was conducted only once. The whole above-ground part was sampled 1, 3, 6, 12, 24, and 48 hours after the exposure, from which the total RNA was extracted and then subjected to qRT-PCR. Using ACT2 gene as a control for endogenous genes, an expression level of each gene was determined as a value relative to the ACT2 gene expression level (Relative expression to ACT2 gene).
For comparison, time-dependent changes in the expression levels of each gene in Arabidopsis thaliana exposed to dry air under the same condition were also determined, and the results are presented in FIG. 5. For the experiment, three independent individuals were used, and the mean values and standard deviations of the three individuals are presented in FIG. 5. The same experiment was conducted twice independently, and the same results were obtained.

Data set [4] has as its system cucumber mosaic virus (CMV) Macula lutea strain. Put plainly: Suppression of viral growth: ELISA of virus coat protein in inoculated leaves. The format is in vivo. The conditions noted are these: Arabidopsis thaliana, 20 seconds once a day for 3 days, about 200 ppm or lower; inoculated 24 hours after last exposure; measured 2 days after inoculation. An excerpt: A plant was exposed to dinitrogen pentoxide using the plant disease resistance inducing device 10 illustrated in FIG. 1, and subjected to an experiment for examining an effect of suppressing viral growth. In the experiment, Arabidopsis thaliana at 5 week of seeding was exposed to dinitrogen pentoxide once a day for 3 days. In each exposure, Arabidopsis thaliana was exposed to dinitrogen pentoxide from a distance of 5 cm for 20 seconds. A concentration of dinitrogen pentoxide in the gas for the exposure was set to about 200 ppm or lower. Twenty-four hours after the last exposure, leaves that had fully developed were inoculated with a cucumber mosaic virus (CMV) Macula lutea strain by a friction inoculation method. Two days after the CMV inoculation, viral loads in the inoculated leaves were quantitatively measured by Enzyme-Linked Immuno Sorbent Assay (ELISA) method using an anti-CMV coat protein antibody.
For comparison, virus loads of Arabidopsis thaliana exposed to dry air and inoculated with CMV under the same condition, and Arabidopsis thaliana exposed to dry air and not inoculated with CMV (Mock) under the same condition were also quantitatively measured, and the results are presented in FIG. 6. For the experiment, six independent individuals were used, and the mean values and standard deviations of the six individuals are presented in FIG. 6. […]

Another data set has as its system Arabidopsis thaliana. Nature of the data set: Observation of leaf damage after gas exposure. The format is in vivo. The conditions noted are these: immediately after exposure and the next day.
Setting [5] is: 20 seconds once a day for 3 days, about 200 ppm or lower, leaves 24 hours after last exposure.

With `O=[N+]([O-])O[N+](=O)[O-]` [dinitrogen pentoxide], in data set [1] (one leaf exposed), the “time to activation of the Ca^2+ signals in the leaf directly exposed” value was “about 20 seconds”. For the same molecule, in data set [1] (one leaf exposed, observed up to 6 minutes), the “spread of Ca^2+ signals after exposure of one leaf” value is listed as “spread to all leaves in the whole body through sieve tubes”. Also, in data set [1] (whole body exposed), the “generation of Ca^2+ signals over the plant body” value was “slowly generated over the whole body”. The “Ca^2+ signals after whole-body exposure” value in data set [1] (whole body exposed, observed 60 seconds after exposure, dry air gave no signals) is reported as “Ca^2+ signals were observed”. In data set [2] (20 seconds once a day for 3 days, about 200 ppm or lower), the “gene ontology analysis result” value is “jasmonic acid signals were activated”. Moreover, in data set [2] (setting [5]), the “number of genes with expression levels reduced to half or less vs control plot” value stood at 1209 genes and the “number of genes with twice or more of induced expression levels vs control plot” value is on record as 1304 genes. This molecule also displayed an At-N2O5-_TPM in data set [2] (gene CYP71A12, control 0.000000) of 0.797 TPM. The At-N2O5-_TPM in data set [2] (gene NIT2, control 0.000000) came to 1.917 TPM. The At-N2O5-_TPM in data set [2] (gene ORA59, control 0.074135) was 2.341 TPM. The At-N2O5-_TPM in data set [2] (gene PAD3, control 0.312642) is 1.293 TPM. In addition, the At-N2O5-_TPM in data set [2] (gene WRKY26, control 0.035706) is given as 0.7565 TPM. For the same molecule, in data set [3], the “time after exposure from which ODR59 expression was induced” value turned out to be 1 h, the “time after exposure from which PDF1.2 expression was induced” value is 6 h, the “time of peak of transiently induced NIT2 expression” value amounted to 12 h and the “time until which high ODR59 expression level was maintained” value stood at 48 h. Further, in data set [3], the “time until which high PDF1.2 expression level was maintained” value is “at least 48 hours”. The “CMV growth (accumulation of virus coat protein) compared to dry air exposure” value in data set [4] is “significantly suppressed”. Further, the “state of leaves after exposure” value with Arabidopsis thaliana is given as “not to curl up but to grow without withering”.
On to `O=[O+][O-]` [ozone, reference compound], for which the “state of leaves after exposure” value with Arabidopsis thaliana was “curl up immediately after the ozone exposure and wither the next day”.

(Values after patent publication US20240407315A1, “PLANT DISEASE […] METHOD, PLANT DISEASE […] DEVICE, AND PLANT DISEASE […] AGENT” (TOHOKU UNIVERSITY, priority 2021, published 2024).)
